In ChEMBL document CHEMBL4043207, “Discovery of a novel, CNS penetrant M4 PAM chemotype based on a 6-fluoro-4-(piperidin-1-yl)quinoline-3-carbonitrile core” (Bioorg Med Chem Lett, 2017):

What was measured:
[1] = molecular target: T1, Muscarinic acetylcholine receptor M4 (Homo sapiens) (UniProt P08173); experiment: Positive allosteric modulation of human M4 receptor expressed in CHO cells co-expressing Gqi5 assessed as increase in acetylcholine-induced calcium mobilization relative to acetylcholine; type: functional, cell-based
T1 sequence (whole entry): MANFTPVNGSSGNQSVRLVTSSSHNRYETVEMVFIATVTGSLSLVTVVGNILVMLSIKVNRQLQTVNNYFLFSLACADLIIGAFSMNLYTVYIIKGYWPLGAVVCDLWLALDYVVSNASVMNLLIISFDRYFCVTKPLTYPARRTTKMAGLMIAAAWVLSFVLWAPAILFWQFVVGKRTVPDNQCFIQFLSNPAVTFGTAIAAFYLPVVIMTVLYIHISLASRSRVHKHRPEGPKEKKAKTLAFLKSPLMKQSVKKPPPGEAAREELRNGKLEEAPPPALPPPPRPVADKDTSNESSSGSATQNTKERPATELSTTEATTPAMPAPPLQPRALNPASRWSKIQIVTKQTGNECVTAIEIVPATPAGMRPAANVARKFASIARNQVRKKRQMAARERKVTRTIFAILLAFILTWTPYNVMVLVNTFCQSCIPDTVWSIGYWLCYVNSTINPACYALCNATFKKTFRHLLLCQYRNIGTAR

[2] = molecular target: T2, Muscarinic acetylcholine receptor M4 (Homo sapiens, UniProt P08173); experiment: Positive allosteric modulation of human M4 receptor expressed in CHO cells co-expressing Gqi5 assessed as increase in acetylcholine-induced calcium mobilization; type: functional, cell-based
T2 sequence (P08173 whole entry): T1 sequence (whole entry)

[3] = molecular target: T3, Muscarinic acetylcholine receptor M4 (Rattus norvegicus, UniProt P08485); experiment: Positive allosteric modulation of rat M4 receptor assessed as increase in acetylcholine-induced response
T3 sequence (P08485 whole entry): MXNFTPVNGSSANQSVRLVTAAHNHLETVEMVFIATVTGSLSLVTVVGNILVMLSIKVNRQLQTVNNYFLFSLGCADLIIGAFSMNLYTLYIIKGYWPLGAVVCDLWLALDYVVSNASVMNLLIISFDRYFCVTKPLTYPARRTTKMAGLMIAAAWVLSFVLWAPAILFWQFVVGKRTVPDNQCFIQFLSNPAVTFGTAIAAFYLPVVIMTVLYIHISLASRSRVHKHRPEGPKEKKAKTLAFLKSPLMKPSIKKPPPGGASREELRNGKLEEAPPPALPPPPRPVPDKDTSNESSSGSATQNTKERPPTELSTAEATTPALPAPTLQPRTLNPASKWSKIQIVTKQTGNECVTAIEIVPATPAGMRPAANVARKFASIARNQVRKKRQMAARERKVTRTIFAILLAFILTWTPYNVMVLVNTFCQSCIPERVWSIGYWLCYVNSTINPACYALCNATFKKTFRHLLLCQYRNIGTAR

[4] = Clearance in rat hepatocytes; type: ADME, cell-based, Hepatocyte
[5] = (§1) Fraction unbound in human plasma; type: ADME, cell-free
[6] = molecular target: T4, Muscarinic acetylcholine receptor M4 (Rattus norvegicus) (UniProt P08485); experiment: Positive allosteric modulation of rat M4 receptor assessed as increase in acetylcholine-induced response relative to acetylcholine
T4 sequence (whole entry): T3 sequence (P08485 whole entry)

[7] = Fraction unbound in rat plasma; type: ADME, cell-free
[8] = Clearance in human hepatocytes; type: ADME, cell-based, Hepatocyte
[9] = Fraction unbound in rat brain; type: ADME, tissue-based
[10] = Ratio of unbound concentration in brain to plasma in Sprague-Dawley rat at 0.1 to 0.2 mg/kg, iv administered as cassette dose after 25 mins; type: ADME, organism-based; details: brain and plasma, read-out: K(p,uu,brain)
Plasma [11] = experiment: as §1; type: ADME, cell-free
[12] = Brain to plasma permeability coefficient, Kp of the compound in Sprague-Dawley rat at 0.1 to 0.2 mg/kg, iv administered as cassette dose after 25 mins; type: ADME, organism-based; details: brain and plasma
[13] = Ratio of unbound concentration in brain to plasma in rat; type: ADME
[14] = Brain to plasma permeability coefficient, Kp of the compound in rat; type: ADME
[15] = Half life in rat plasma at 0.2 mg/kg administered as iv cassette dose; type: ADME, organism-based
[16] = Volume of distribution at steady state in dog plasma at 0.2 mg/kg administered as iv cassette dose; type: ADME, organism-based, Canis lupus familiaris; details: read-out: Vdss
[17] = Clearance in rat plasma at 0.2 mg/kg administered as iv cassette dose; type: ADME, organism-based
MDR1 (P-gp) = experiment: Efflux ratio of apparent permeability in MDCK-MDR1 cells; type: ADME, cell-based, Canis lupus familiaris; details: dog
[18] = Half life in dog plasma at 0.2 mg/kg administered as iv cassette dose; type: ADME, organism-based, Canis lupus familiaris
[19] = Apparent permeability in MDCK-MDR1 cells; type: ADME, cell-based, Canis lupus familiaris; details: dog
[20] = Clearance in dog plasma at 0.2 mg/kg administered as iv cassette dose; type: ADME, organism-based, Canis lupus familiaris
Plasma [21] = experiment: Fraction unbound in dog plasma at 0.2 mg/kg administered as iv casette dose; type: ADME, organism-based, Canis lupus familiaris; details: in vivo
[22] = Volume of distribution at steady state in rat plasma at 0.2 mg/kg administered as iv cassette dose; type: ADME, organism-based; details: read-out: Vdss

N#Cc1cnc2ccc(F)cc2c1N1CCC(C(=O)Nc2ccncn2)CC1
Emax [1]: 59% | EC50 ([2]; read-out: EC50): 0.94 µM

N#Cc1cnc2ccc(F)cc2c1N1CCC(C(=O)NCc2ccccc2)CC1
EC50 [3]: 2.56 µM | CLhep predicted [4]: 3.66 L/h/kg | Emax [1]: 68 to 78% | fraction unbound [5]: 0.031 | EC50 ([2]; read-out: pEC50 (converted)): 1.23 µM | Emax [6]: 49% | fraction unbound [7]: 0.028 | CLhep predicted [8]: 1.02 L/h/kg

COc1ccc(CNC(=O)C2CCN(c3c(C#N)cnc4ccc(F)cc34)CC2)cc1
Emax [1]: 60% | EC50 ([2]; read-out: EC50): 0.664 µM | EC50 ([2]; read-out: pEC50 (converted)): 0.617 µM

N#Cc1cnc2ccc(F)cc2c1N1CCC(C(=O)N2CCc3ccccc3C2)CC1
Emax [1]: 81% | EC50 ([2]; read-out: EC50): 0.652 µM

Cc1ccc(OC2CCN(c3ncnc4ccc(F)cc34)CC2)cn1
fraction unbound [9]: 0.007 | Kp uu at 25 min [10]: 0.74 | CLhep predicted [4]: 4.02 L/h/kg | Fu (Plasma [11]): 0.013 | fraction unbound [7]: 0.011 | CLhep predicted [8]: 1.2 L/h/kg | Kp at 25 min [12]: 1.16

Cc1ccc(OC2CCN(c3c(C#N)cnc4ccc(Cl)cc34)CC2)cn1
Emax [1]: 72% | EC50 ([2]; read-out: EC50): 0.905 µM

Cc1cc(C)c(OC2CCN(c3c(C#N)cnc4ccc(F)cc34)CC2)cn1
EC50 ([2]; read-out: EC50): > 10 µM | EC50 ([2]; read-out: pEC50 (converted)): > 31.6 µM

Cc1ccc2ncc(C#N)c(N3CCC(Oc4ccc(C)nc4)CC3)c2c1
Emax [1]: 67% | EC50 ([2]; read-out: EC50): 3.02 µM | EC50 ([2]; read-out: pEC50 (converted)): 2.95 µM

COc1ccc(CNC(=O)C2CCN(c3c(C#N)cnc4ccc(F)cc34)CC2)cc1F
K(p,uu,brain) [13]: 0.26 | CLhep predicted [4]: 3.66 L/h/kg | Emax [1]: 65% | EC50 ([2]; read-out: EC50): 1.09 µM | EC50 ([2]; read-out: pEC50 (converted)): 1.05 µM | Kp [14]: 0.29 | CLhep predicted [8]: 1.14 L/h/kg

Cc1ccc(OC2CCN(c3ccnc4ccc(F)cc34)CC2)cn1
Emax [1]: 62% | EC50 ([2]; read-out: EC50): 2.21 µM | EC50 ([2]; read-out: pEC50 (converted)): 2.14 µM

N#Cc1cnc2ccc(F)cc2c1N1CCC(Oc2ccccc2)CC1
Emax [1]: 81% | EC50 ([2]; read-out: EC50): 3.26 µM

Cc1ccc(OC2CCN(c3c(C#N)cnc4c(F)cc(F)cc34)CC2)cn1
Emax [1]: 93% | EC50 ([2]; read-out: EC50): 0.223 µM | EC50 ([2]; read-out: pEC50 (converted)): 0.209 µM

N#Cc1cnc2ccc(F)cc2c1N1CCC(Oc2ccc(Cl)nc2)CC1
Emax [1]: 80% | EC50 ([2]; read-out: EC50): 0.577 µM | EC50 ([2]; read-out: pEC50 (converted)): 0.562 µM

N#Cc1ccc(OC2CCN(c3c(C#N)cnc4ccc(F)cc34)CC2)cn1
Emax [1]: 49% | EC50 ([2]; read-out: EC50): > 10 µM

N#Cc1cnc2ccc(F)cc2c1N1CCC(C(=O)N2CCSCC2)CC1
Emax [1]: 88% | EC50 ([2]; read-out: EC50): 1.41 µM

N#Cc1cnc2ccc(F)cc2c1N1CCC(C(=O)Nc2cccnc2)CC1
Emax [1]: 68% | EC50 ([2]; read-out: EC50): 0.619 µM

Cc1ccc(OC2CCN(c3c(C#N)cnc4ccc(F)cc34)CC2)cn1
EC50 [3]: 0.437 µM | fraction unbound [9]: 0.014 | half-life [15]: 1.7 h | Vd [16]: 4 L/kg | Kp uu at 25 min [10]: 2.37 to 2.4 | clearance [17]: 2.16 L/h/kg | CLhep predicted [4]: 3.12 L/h/kg | Emax [1]: 79% | efflux ratio (MDR1 (P-gp)): 1.1 | fraction unbound [5]: 0.024 | half-life [18]: 1.6 h | EC50 ([2]; read-out: EC50): 0.197 µM | Papp [19]: 280 nm/s | Emax [6]: 74% | clearance [20]: 2.46 L/h/kg | Fu (Plasma [21]): 0.045 | fraction unbound [7]: 0.031 | CLhep predicted [8]: 0.9 L/h/kg | Kp at 25 min [12]: 5.25 to 5.3 | Vd [22]: 3.2 L/kg

N#Cc1cnc2ccc(F)cc2c1N1CCC(C(=O)Nc2ccc(S(N)(=O)=O)cc2)CC1
fraction unbound [9]: 0.01 | Kp uu at 25 min [10]: 0.1 | CLhep predicted [4]: 2.04 L/h/kg | Emax [1]: 63% | efflux ratio (MDR1 (P-gp)): 83 | fraction unbound [5]: 0.064 | EC50 ([2]; read-out: EC50): 0.248 µM | EC50 ([2]; read-out: pEC50 (converted)): 0.229 µM | fraction unbound [7]: 0.016 | CLhep predicted [8]: 0.78 L/h/kg | Kp at 25 min [12]: 0.16

N#Cc1cnc2ccc(F)cc2c1N1CCC(C(=O)N2CCOCC2)CC1
Emax [1]: 78% | EC50 ([2]; read-out: EC50): 6.44 µM

Cc1ccc(OC2CCN(c3c(C#N)cnc4c(C)cc(F)cc34)CC2)cn1
Emax [1]: 82% | EC50 ([2]; read-out: EC50): 2.07 µM

N#Cc1cnc2ccc(F)cc2c1N1CCC(Oc2ccc(F)nc2)CC1
Emax [1]: 83% | EC50 ([2]; read-out: EC50): 0.512 µM | EC50 ([2]; read-out: pEC50 (converted)): 0.49 µM

COc1ccc2c(c1)CCN(C(=O)C1CCN(c3c(C#N)cnc4ccc(F)cc34)CC1)C2
fraction unbound [9]: 0.007 | Kp uu at 25 min [10]: 0.68 | CLhep predicted [4]: 3.84 L/h/kg | Emax [1]: 76% | fraction unbound [5]: 0.011 | EC50 ([2]; read-out: EC50): 0.648 µM | fraction unbound [7]: 0.013 | CLhep predicted [8]: 1.2 L/h/kg | Kp at 25 min [12]: 1.26

Cc1ccc(OC2CCN(c3c(C#N)cnc4cc(F)c(F)cc34)CC2)cn1
Emax [1]: 92% | EC50 ([2]; read-out: EC50): 0.571 µM | EC50 ([2]; read-out: pEC50 (converted)): 0.562 µM

N#Cc1cnc2ccc(F)cc2c1N1CCC(C(=O)Nc2ccc(F)c(F)c2)CC1
Emax [1]: 52% | EC50 ([2]; read-out: EC50): 0.565 µM

COc1ccccc1CNC(=O)C1CCN(c2c(C#N)cnc3ccc(F)cc23)CC1
Emax [1]: 48% | EC50 ([2]; read-out: EC50): 0.651 µM | EC50 ([2]; read-out: pEC50 (converted)): 0.589 µM

N#Cc1cnc2ccc(F)cc2c1N1CCC(C(=O)Nc2ccccn2)CC1
Emax [1]: 44% | EC50 ([2]; read-out: EC50): 0.912 µM | EC50 ([2]; read-out: pEC50 (converted)): 0.871 µM

N#Cc1cnc2ccc(F)cc2c1N1CCC(Oc2cccnc2)CC1
Emax [1]: 80% | EC50 ([2]; read-out: EC50): 1.3 µM

N#Cc1cnc2ccc(F)cc2c1N1CCC(C(=O)Nc2ccncc2)CC1
Emax [1]: 73% | EC50 ([2]; read-out: EC50): 0.147 µM

Cc1ccc(OC2CCN(c3c(C#N)cnc4ccc(F)cc34)CC2)c(F)n1
Emax [1]: 53% | EC50 ([2]; read-out: EC50): 5.64 µM | EC50 ([2]; read-out: pEC50 (converted)): 5.37 µM

Cn1nccc1NC(=O)C1CCN(c2c(C#N)cnc3ccc(F)cc23)CC1
Emax [1]: 81% | EC50 ([2]; read-out: EC50): 1.76 µM | EC50 ([2]; read-out: pEC50 (converted)): 1.66 µM

Cc1ccc(OC2CCN(c3c(C#N)cnc4ccc(F)cc34)CC2)c(C)n1
EC50 ([2]; read-out: EC50): > 10 µM | EC50 ([2]; read-out: pEC50 (converted)): > 31.6 µM
